Key:
Type in all cases: biochemical
[1] = target: T1, human sputum elastase (HSE) (Homo sapiens, UniProt P08246); experiment: HSE inhibitory activity (synthetic substrate, pNA release); details: pH 7.0; HSE 10 nM, substrate 0.25 mM; read-out: IC₅₀ value HSE
T1 construct: human sputum elastase (HSE); purchased Sigma Inc
T1 sequence (P08246 30-267): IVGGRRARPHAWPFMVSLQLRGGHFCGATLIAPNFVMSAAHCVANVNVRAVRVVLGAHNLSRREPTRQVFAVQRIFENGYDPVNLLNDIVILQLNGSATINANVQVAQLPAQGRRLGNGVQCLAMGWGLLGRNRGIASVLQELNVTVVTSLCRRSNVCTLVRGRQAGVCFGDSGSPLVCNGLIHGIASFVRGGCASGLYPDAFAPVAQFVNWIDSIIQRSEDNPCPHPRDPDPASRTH
Method: (§1) Activities of the Benzoxazine derivatives of the present invention against human leukocyte elastase (HLE), human sputum elastase (HSE), human cathepsin G (HCG), bovine pancreatic α-chmotrypsin (CYT) and bovine pancreatic trypsin (TRY) were measured by the following method.
(§2) A test compound was dissolved in DMSO (for fluorometry) and prepared various concentration of the solution. To each concentration was added 2-fold volume of 0.2M Tris-HCl (pH8.6), thereby obtaining a test solution. Synthetic substrate (Funakoshi, L-1335) was dissolved in DMSO and 2-volume of 0.2M Tris-HCl (pH8.6) was added thereto, thereby obtaining a substrate solution. The reaction was performed using a microplate having 96 wells (Nunk). Six-time reactions were repeated for each concentration. One handred and forty µl of an enzyme solution containing 0.2M Tris-HCl (pH8.6), 30 µl of a test solution and 30 µl of a substrate solution per well of the microplate were respectively pre-incubated at 37°C for 10 minutes. After completion of the incubation, the enzyme solution was mixed with the test sample and incubated for 10 minutes and then the substrate solution was added to perform an enzyme reaction. The absorbance of released P-nitroanilide (PNA) was measured at the wave length of 405 nm by means of a microplate reader (MTP-100; CORONA), thereby determining the substrate decomposition. […]

[2] = target: T2, bovine pancreatic α-chmotrypsin (CYT) (Bos taurus, UniProt P00766); experiment: CYT inhibitory activity (synthetic substrate, pNA release); details: pH 8.0; CYT 3.4 nM, substrate 0.273 mM; read-out: IC₅₀ value CYT
T2 construct: bovine pancreatic α-chmotrypsin (CYT); purchased Sigma Co., Ltd
Method: as §1
A test compound was dissolved in DMSO (for fluorometry) and prepared various concentration of the solution. To each concentration was added 2-fold volume of 0.2M Tris-HCl (pH8.6), thereby obtaining a test solution. Synthetic substrate (Funakoshi, L-1335) was dissolved in DMSO and 2-volume of 0.2M Tris-HCl (pH8.6) was added thereto, thereby obtaining a substrate solution. The reaction was performed using a microplate having 96 wells (Nunk). Six-time reactions were repeated for each concentration. One handred and forty µl of an enzyme solution containing 0.2M Tris-HCl (pH8.6), 30 µl of a test solution and 30 µl of a substrate solution per well of the microplate were respectively pre-incubated at 37°C for 10 minutes. After completion of the incubation, the enzyme solution was mixed with the test sample and incubated for 10 minutes and then the substrate solution was added to perform an enzyme reaction. The absorbance of released P-nitroanilide (PNA) was measured at the wave length of 405 nm by means of a microplate reader (MTP-100; CORONA), thereby determining the substrate decomposition. The rate of the substrate decomposition was shown as an average value of 6 repeated reactions. The inhibitory concentration of a test compound relative to the amount of the substrate decomposition in the reaction mixture without a test compound was regarded as an IC₅₀ value. The final concentration of HLE and a synthesized substrate in the reaction mixture were 5.63 nM and 0.2625 mM, respectively.
a) Enzyme obtaining route CYT was obtained from Sigma Co., Ltd.
Substantially the same method as used in the measurement of the HLE inhibitory activity was used except that a buffer solution (pH 8.0) was used. The final concentration of CYT and synthetic substrate (Funakoshi, L-1010) in a reaction mixture were 3.4 nM and 0.273 mM, respectively.

[3] = target: T3, bovine pancreatic trypsin (TRY) (Bos taurus, UniProt P00760); experiment: TRY inhibitory activity (synthetic substrate, pNA release); details: pH 7.5; TRY 25 nM, substrate Z-Arg-pNA 1.0 mM; read-out: IC₅₀ value TRY
T3 construct: bovine pancreatic trypsin (TRY); purchased Sigma Inc
T3 sequence (P00760 24-246): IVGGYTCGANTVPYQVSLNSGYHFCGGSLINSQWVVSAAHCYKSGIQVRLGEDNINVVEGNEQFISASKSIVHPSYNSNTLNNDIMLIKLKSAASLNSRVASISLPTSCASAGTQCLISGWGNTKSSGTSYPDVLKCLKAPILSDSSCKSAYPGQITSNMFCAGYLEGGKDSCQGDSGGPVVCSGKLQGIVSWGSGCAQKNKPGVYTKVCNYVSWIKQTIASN
Method: as §1, §2

**Q.** `Cc1cccc2nc([C@@H](NC(=O)OCC(c3ccccc3)c3ccccc3)C(C)C)oc(=O)c12` [Compound 1, 2-[1(S)-[(2,2-diphenylethoxy-carbonyl)amino]-2-methylpropyl]-5-methyl-4H-3,1-benzoxazin-4-one] was tested. Which IC50 [1] did it give?
**A.** 280 nM

**Q.** And the IC50 [2]?
**A.** 1400 nM

**Q.** What about the IC50 [3] of the same compound?
**A.** > 12.5 µM
